According to PubChem BioAssay AID248 (DTP/NCI, 2004):
Several values for one entry are separate records, joined by “and”; a condition that tells them apart may be missing. Identical values can stand only once. Inconclusive results and toxic doses are left out. Cut-off read from the data, not from the text of the source: active = T/C of 150% or more; inactive = T/C below 125%.

Test system: L1210 leukemia ip in BDF1 mice, survival T/C
Assay: NCI In Vivo Anticancer Drug Screen. Data for tumor model L1210 Leukemia (intraperitoneal) in B6D2F1 (BDF1) mice
Details: endpoint: mean survival time, higher = longer survival
How it was run: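 Each compound was tested against a transplantable tumor grown in mice. The endpoint was survival, with treated animals benchmarked against vehicle controls as a simple ratio.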

[1] = dose: 100.0 mg/kg/injection, schedule: Q01DX001 (ip), vehicle: other
[2] = dose: 200.0 mg/kg/injection, schedule: Q01DX001 (ip), vehicle: other
[3] = dose: 400.0 mg/kg/injection, schedule: Q01DX001 (ip), vehicle: other
[4] = dose: 100.0 mg/kg/injection, schedule: Q01DX009 (ip), vehicle: saline with Tween-80
[5] = dose: 100.0 mg/kg/injection, schedule: Q04DX003 (ip), vehicle: saline with Tween-80
[6] = dose: 200.0 mg/kg/injection, schedule: Q01DX009 (ip), vehicle: saline with Tween-80
[7] = dose: 200.0 mg/kg/injection, schedule: Q04DX003 (ip), vehicle: saline with Tween-80
[8] = dose: 400.0 mg/kg/injection, schedule: Q01DX009 (ip), vehicle: saline with Tween-80
[9] = dose: 100.0 mg/kg/injection, schedule: Q01DX009 (ip), vehicle: Klucel (hydroxypropylcellulose) (HPC)
[10] = dose: 200.0 mg/kg/injection, schedule: Q01DX009 (ip), vehicle: Klucel (hydroxypropylcellulose) (HPC)
[11] = dose: 400.0 mg/kg/injection, schedule: Q01DX009 (ip), vehicle: Klucel (hydroxypropylcellulose) (HPC)
[12] = dose: 100.0 mg/kg/injection, schedule: Q04DX003 (ip), vehicle: Klucel (hydroxypropylcellulose) (HPC)
[13] = dose: 200.0 mg/kg/injection, schedule: Q04DX003 (ip), vehicle: Klucel (hydroxypropylcellulose) (HPC)
[14] = dose: 400.0 mg/kg/injection, schedule: Q04DX003 (ip), vehicle: Klucel (hydroxypropylcellulose) (HPC)
[15] = dose: 50.0 mg/kg/injection, schedule: Q01DX009 (ip), vehicle: saline with Tween-80
[16] = dose: 75.0 mg/kg/injection, schedule: Q01DX001 (ip), vehicle: carboxymethylcellulose (CMC)
[17] = dose: 100.0 mg/kg/injection, schedule: Q04DX002 (ip), vehicle: Klucel (hydroxypropylcellulose) (HPC)
[18] = dose: 200.0 mg/kg/injection, schedule: Q04DX002 (ip), vehicle: Klucel (hydroxypropylcellulose) (HPC)
[19] = dose: 400.0 mg/kg/injection, schedule: Q04DX002 (ip), vehicle: Klucel (hydroxypropylcellulose) (HPC)
[20] = dose: 50.0 mg/kg/injection, schedule: Q01DX001 (ip), vehicle: saline
[21] = dose: 100.0 mg/kg/injection, schedule: Q01DX001 (ip), vehicle: saline
[22] = dose: 200.0 mg/kg/injection, schedule: Q01DX001 (ip), vehicle: saline

Measured: T/C

O=c1[nH]nc(SCc2ccccc2)c(=O)n1C(c1ccccc1)c1ccccc1
inactive: [1] 90 % of control | [2] 90 % of control | [3] 98 % of control

O=C(/C=C/c1ccccc1)c1cccc(Br)c1
inactive: [4] 106 % of control | [5] 97 % of control | [6] 91 % of control | [7] 96 % of control | [8] 96 % of control | dose: 400.0 mg/kg/injection, schedule: Q04DX003 (ip), vehicle: saline with Tween-80 96 % of control

Cc1ccccc1C(=O)C(=O)c1ccccc1C
inactive: [9] 95 % of control | [10] 106 % of control | [11] 93 % of control

O=S(=O)(C1CC1c1ccccc1)N(c1ccccc1)c1ccccc1 (stereo unspecified)
inactive: dose: 100.0 mg/kg/injection, schedule: Q01DX001 (ip), vehicle: Klucel (hydroxypropylcellulose) (HPC) 94 % of control | [12] 93 % of control | dose: 200.0 mg/kg/injection, schedule: Q01DX001 (ip), vehicle: Klucel (hydroxypropylcellulose) (HPC) 100 % of control | [13] 93 % of control | dose: 400.0 mg/kg/injection, schedule: Q01DX001 (ip), vehicle: Klucel (hydroxypropylcellulose) (HPC) 97 % of control | [14] 93 % of control

CCOC(=O)c1[nH]c2ccsc2c1C[N+]1(C)CCCCC1
inactive: dose: 12.5 mg/kg/injection, schedule: Q01DX001 (ip), vehicle: saline with Tween-80 105 % of control | dose: 25.0 mg/kg/injection, schedule: Q01DX001 (ip), vehicle: saline with Tween-80 103 % of control

COc1cc2c(cc1OC)C13CCN4CC5=CCOC6CC(=O)N2C1C6C5CC43 (stereo unspecified)
inactive: dose: 9.5 mg/kg/injection, schedule: Q01DX001 (ip), vehicle: other 103 % of control | dose: 19.0 mg/kg/injection, schedule: Q01DX001 (ip), vehicle: other 103 % of control | dose: 25.0 mg/kg/injection, schedule: Q01DX015 (ip), vehicle: saline 101 % of control | dose: 38.0 mg/kg/injection, schedule: Q01DX001 (ip), vehicle: other 97 % of control | dose: 50.0 mg/kg/injection, schedule: Q01DX015 (ip), vehicle: saline 100 % of control | dose: 100.0 mg/kg/injection, schedule: Q01DX015 (ip), vehicle: saline 91 % of control

c1ccc(NC2=NCCO2)nc1
inactive: [15] 100 % of control | [4] 94 % of control | [6] 102 % of control

Cc1ccc(S(=O)(=O)Nc2ccccc2-c2nc3cc(Cl)ccc3c(=O)o2)cc1
inactive: [4] 86 % of control | [6] 87 % of control | [8] 89 % of control

O=C(COc1ccccc1C(=O)O)NCc1ccc(Cl)cc1
inactive: dose: 100.0 mg/kg/injection, schedule: Q04DX003 (ip), vehicle: gum acacia 97 % of control | dose: 200.0 mg/kg/injection, schedule: Q04DX003 (ip), vehicle: gum acacia 95 % of control | dose: 400.0 mg/kg/injection, schedule: Q04DX003 (ip), vehicle: gum acacia 96 % of control

O=[N+]([O-])c1ccc(C(SCc2ccccc2)SCc2ccccc2)cc1
inactive: [16] 97 % of control | dose: 150.0 mg/kg/injection, schedule: Q01DX001 (ip), vehicle: carboxymethylcellulose (CMC) 100 % of control | dose: 300.0 mg/kg/injection, schedule: Q01DX001 (ip), vehicle: carboxymethylcellulose (CMC) 97 % of control

O=C(Nc1ccccn1)Nc1ccc([N+](=O)[O-])cc1[N+](=O)[O-]
inactive: [17] 108 % of control | [18] 104 % of control | [19] 97 % of control

COCCCN1CC2CCCC1O2 (stereo unspecified)
inactive: [20] 91 % of control | [21] 95 % of control | [22] 97 % of control

CC#CC(O)(C(=O)OC1CCN(C)CC1)C(C)CC (stereo unspecified)
inactive: [15] 92 % of control | [4] 96 % of control | [5] 120 % of control | [7] 102 % of control

O=C(c1ccccc1)c1c(-c2ccccc2)c(-c2ccccc2)n(-c2ccccc2)c1C(=O)c1ccccc1
inactive: dose: 22.2 mg/kg/injection, schedule: Q01DX001 (ip), vehicle: carboxymethylcellulose (CMC) 94 % of control and 96 % of control | dose: 33.35 mg/kg/injection, schedule: Q01DX001 (ip), vehicle: carboxymethylcellulose (CMC) 91 % of control | dose: 50.0 mg/kg/injection, schedule: Q01DX001 (ip), vehicle: carboxymethylcellulose (CMC) 94 % of control | [16] 94 % of control

CCOC(=N)CC(=N)OCC
inactive: dose: 100.0 mg/kg/injection, schedule: Q01DX009 (ip), vehicle: water 96 % of control | dose: 100.0 mg/kg/injection, schedule: Q04DX003 (ip), vehicle: water 97 % of control | dose: 200.0 mg/kg/injection, schedule: Q01DX009 (ip), vehicle: water 101 % of control | dose: 200.0 mg/kg/injection, schedule: Q04DX003 (ip), vehicle: water 93 % of control | dose: 400.0 mg/kg/injection, schedule: Q01DX009 (ip), vehicle: water 97 % of control | dose: 400.0 mg/kg/injection, schedule: Q04DX003 (ip), vehicle: water 97 % of control

CCC(=O)ONO
inactive: dose: 50.0 mg/kg/injection, schedule: Q01DX009 (ip), vehicle: saline 94 % of control | dose: 100.0 mg/kg/injection, schedule: Q01DX009 (ip), vehicle: saline 102 % of control | dose: 200.0 mg/kg/injection, schedule: Q01DX009 (ip), vehicle: saline 94 % of control

CC(=Nc1ccc(Br)cc1)c1c(O)cc(C)oc1=O
inactive: [9] 100 % of control | [10] 91 % of control | [11] 117 % of control

COc1cc(N)c(OC)nn1
inactive: [1] 105 % of control | [2] 96 % of control | [3] 93 % of control

CC1CCCC(CN=Cc2ccc(O)cc2O)[N-]1.CC1CCCC(CN=Cc2ccc(O)cc2O)[N-]1.[Ni+2] (stereo unspecified)
inactive: dose: 25.0 mg/kg/injection, schedule: Q04DX003 (ip), vehicle: saline with Tween-80 101 % of control | dose: 50.0 mg/kg/injection, schedule: Q04DX003 (ip), vehicle: saline with Tween-80 103 % of control | [5] 98 % of control

c1ccc2[nH]c(/N=N/c3nc4ccccc4[nH]3)nc2c1
inactive: [9] 95 % of control | [12] 94 % of control | [10] 105 % of control | [13] 98 % of control | [11] 87 % of control | [14] 98 % of control

O/N=C/c1ccc2c(c1)OCO2
inactive: [20] 96 % of control | [21] 96 % of control | dose: 100.0 mg/kg/injection, schedule: Q04DX002 (ip), vehicle: gum acacia 106 % of control | [22] 102 % of control | dose: 200.0 mg/kg/injection, schedule: Q04DX002 (ip), vehicle: gum acacia 110 % of control | dose: 400.0 mg/kg/injection, schedule: Q01DX001 (ip), vehicle: saline 96 % of control | dose: 400.0 mg/kg/injection, schedule: Q04DX002 (ip), vehicle: gum acacia 92 % of control

CCOC(=O)C12CCCC1=CC(=O)CC2 (stereo unspecified)
inactive: [17] 107 % of control | [18] 121 % of control | [19] 104 % of control
